Consider one molecule from patent publication US10653667B2, “Drug for preventing, treating or preventing metastasis of giant cell tumor that occurs in bone or soft parts, chondrosarcoma, or osteosarcoma, local injection for arterial embolization, and artificial bone” (NIPPON CHEMIPHAR CO., LTD, priority 2013, dated 2020).

SMILES strings stand for the structures. “Also recorded” adds a separate entry of the source.

Assay [1] deals with GCTB cultured cells (case 1, case 2; GCT-1, GCT-2). Briefly: Suppression of cell proliferation of GCTB cultured cells (Cell Counting Kit-8, WST assay). It counts as cell-based, human. Conditions: drug at various concentrations, CCK-8 24 hours after addition. On the procedure: Tissue Int., 75:71-77), repeatedly subcultured until there were only spindle-shaped cells, which state was gradually attained from the state that there were also multinucleated giant cells observed in an early stage, and then used for the following analysis. […] Zaltoprofen was added as a solution in DMSO (dimethyl sulfoxide) prepared at a concentration 1000 times higher than the final concentration, and the solution was added in a volume of 0.1% of the volume of the medium. The same shall apply to the other drugs used in the following examples. […]

Assay [2] relates to GCTB cultured cells of the case 1. Description: Tunel assay and caspase 3 staining of GCTB cultured cells (apoptosis). It counts as cell-based, human. Particulars: zaltoprofen 100 and 200 μM; 8 hours and 24 hours. On the procedure: Further, the aforementioned GCTB cultured cells of the case 1 mentioned above were cultured on chamber cover slide glass, and zaltoprofen was added at different concentrations (100, and 200 μM) 24 hours afterward. Then, 8 hours and 24 hours afterward, the cells were fixed with 4% paraformaldehyde, staining with caspase 3 and Tunel assay were performed, and presence or absence of apoptosis was analyzed. In the Tunel assay, fragmented DNAs produced in the process of apoptosis were detected by the TdT-mediated dUTP nick end labeling method (TUNEL). Observation was performed with a fluorescence microscope (BZ-9000) of Keyence, and positive images for each concentration were quantitatively observed (FIGS. 2 to 5).

Assay [3] deals with giant cell tumor of bone (GCTB). Description: Apoptosis analysis of operational excision sample of GCTB patient administered with zaltoprofen. It counts as in vivo, human. On the procedure: An operational excision sample of a person who had been administered with 3 tablets per day of the zaltoprofen tablets, Soleton Tablet 80 (generic name: zaltoprofen, 80 mg, Nippon Chemiphar) for about 28 days for pain due to the tumor, and then subjected to the operation, and an operational excision sample of giant cell tumor of bone extracted from a patient with giant cell tumor of bone not administered with zaltoprofen (case in which tumor was excised by usual surgical operation according to standard therapy) as a control were subjected to caspase 3 staining and Tunel assay, and analyzed for the presence or absence of apoptosis. The caspase 3 protein was fluorescently detected by using Anti-ACTIVE Caspase-3-Ab (Roche) ([…]) (12-4739-81) as the primary antibody, and Donkey F2 Fragment anti-Rabbit IgG PE of eBioscience as the secondary antibody. Observation was performed with a fluorescence microscope (BZ-9000) produced by Keyence (FIG. 10).

For assay [4], the system named is PPARγ expression in giant cell tumor of bone (GCTB). Briefly: PPARγ staining of operational excision sample of GCTB patient administered with zaltoprofen. Format: in vivo, human. Conditions: 3 tablets per day Soleton Tablet 80 for about 28 days. On the procedure: An operational excision sample of a person who had been administered with 3 tablets per day of the zaltoprofen tablets, Soleton Tablet 80 (generic name: zaltoprofen, 80 mg, Nippon Chemiphar) for about 28 days for pain due to the tumor, and then subjected to the operation, and an operational excision sample of giant cell tumor of bone excised from a patient with giant cell tumor of bone not administered with zaltoprofen (case in which tumor was excised by usual surgical operation according to standard therapy) as a control were subjected to staining of PPARγ, and expression of PPARγ was analyzed by PCR. For PCR, Hs_PPARG_1_SGQuantiTect Primer Assay (200) (QT00029841) of QIAGEN was used. Observation was performed with a fluorescence microscope (BZ-9000) of Keyence (FIG. 11).

For assay [5], the system named is GCTB cultured cells (case 1, case 2). Briefly: Cell proliferation of GCTB cultured cells in the presence or absence of PPARγ siRNA. Format: cell-based, human. Conditions: 200 μM zaltoprofen or 60 μM troglitazone; 72 hours.
Assay [6] has as its system cultured cells of giant cell tumor of tendon sheath (GCTT). Description: Suppression of cell proliferation of GCTT cultured cells (CCK-8). It counts as cell-based, human. Particulars: drug at various concentrations, CCK-8 24 hours after addition.
Assay [7] deals with cultured cells of pigmented villonodular synovitis (PVNS). Description: Suppression of cell proliferation of PVNS cultured cells (CCK-8). Format: cell-based, human. Particulars: PVNS cells; drug at various concentrations; CCK-8 24 hours after addition.
The next assay deals with H-EMC-SS cells. Briefly: Caspase 3 staining of chondrosarcoma cell line H-EMC-SS (apoptosis). It counts as cell-based, human. Particulars: zaltoprofen 200 μM, troglitazone 100 μM or pioglitazone 200 μM, compared with control. On the procedure: Further, in the same manner as that of Example 1, cells of the chondrosarcoma cell line were subjected to caspase 3 staining, and presence or absence of apoptosis was analyzed (FIGS. 46 and 47).

For assay [8], the system named is PPARγ expression in H-EMC-SS cells. Description: PPARγ immunostaining of chondrosarcoma cell line H-EMC-SS. It counts as cell-based, human. Conditions: zaltoprofen 200 μM, troglitazone 100 μM or pioglitazone 200 μM.
Assay [9] concerns SW1353 cells. Description: Suppression of cell proliferation of chondrosarcoma cell line SW1353 (CCK-8). Format: cell-based, human. Conditions: drug at various concentrations. An excerpt: The H-EMC-SS cells were obtained from the Riken BioResource Center. As the SW1353 cells, those obtained from ATCC were used.
Another assay relates to OUMS-27 cells. Description: Suppression of proliferation of human chondrosarcoma cell line OUMS-27 (CCK-8). Format: cell-based. Particulars: at concentrations of 200 μM and 400 μM (50-400 μM tested); 72 hours.
Assay [10] has as its system SW1353 cells. Briefly: Proliferation of SW1353 cells cultured beforehand with PPARγ siRNA or control siRNA. Format: cell-based, human.
For a further assay, the system named is human PVNS cells. Description: Proliferation of human PVNS cells cultured beforehand with PPARγ siRNA or control siRNA. Format: cell-based. Particulars: PPARγ siRNA 100 nM 48 hours, 100 μM rosiglitazone or 400 μM zaltoprofen.
Assay [11] concerns SW1353 cells. Description: Cell invasion of SW1353 cells (Matrigel Invasion Chamber). It counts as cell-based, human. An excerpt: For the analysis of cell invasion, Matrigel™ Invasion Chamber (BD Bioscience, catalog number 354480), which uses Matrigel as the matrix, was used. […] FIGS. 76 and 77 show microphotographs of invaded cells fixed by immersion into a 4% paraformaldehyde solution, and stained with hematoxylin (magnification is 200 times). From the microphotographs of FIGS. 76 and 77, the patterns of the invaded cells can be understood.

For assay [12], the system named is GCTB cultured cells (case 1, case 2; GCT-1, GCT-2). Conditions: GCTB derived from a patient; inventors' earlier reports; cited from earlier work.
Assay [13] concerns GCTB cultured cells of the case 1. Conditions: GCTB derived from a patient; inventors' earlier reports; cited from earlier work.
Assay [14] concerns giant cell tumor of bone (GCTB). Particulars: patient who had taken zaltoprofen for four weeks at 240 mg per day; inventors' earlier reports; cited from earlier work.
Where [15] appears, read: GCTB patient, 3 tablets per day Soleton Tablet 80 for about 28 days, vs patient not administered.

`CC(C(=O)O)c1ccc2c(c1)CC(=O)c1ccccc1S2` (stereo not drawn) [zaltoprofen]: the “suppression of cell proliferation (live cell count, absorbance at 450 nm)” value in [1] is reported as “concentration-dependent suppression of the cell proliferation; also recorded: suppressed proliferation”. Also, the Tunel-positive ratio result in assay [2] is “concentration and administration time-dependent increases”. Further, the “caspase 3-positive ratio” value in assay [2] is “concentration and administration time-dependent increases”; with H-EMC-SS cells, “increased”. In assay [3] (GCTB patient who had taken zaltoprofen over four weeks at 240 mg per day, fat cell-like cells existed instead), the “cells found in excised bone tissues at ablative operation” value is “cells characteristic to bone giant cells did not exist in the excised bone tissues”. The “Tunel-positive cells in excision sample” value in assay [3] (setting [15]) is recorded as “could be confirmed”. For the same molecule, the “caspase 3-positive cells in excision sample” value in assay [3] (setting [15]) is “could be confirmed”. Also, in assay [4], the “fat cell differentiation in excision sample” value is “fat cell differentiation could be confirmed”. Besides, the “PPARγ-expressing cells in excision sample” value in assay [4] (vs patient not administered) was “PPARγ-expressing cells could be confirmed”. Also, in [5], the “cell proliferation-inhibiting effect in the PPARγ siRNA addition group” value is “significantly suppressed”. Further, the “suppression of cell proliferation (absorbance at 450 nm)” value in assay [6] is on record as “cell proliferation was suppressed”; in assay [7] it was “cell proliferation was suppressed”; in the assay on SW1353 cells [9] it was “suppressed proliferation”. In [8], the “expression of PPARγ (PPARγ-positive images)” value is “expression of PPARγ could be confirmed”. Moreover, the “suppression of proliferation of OUMS-27 cells” value in the assay on OUMS-27 cells was “suppressed proliferation”. In the assay with SW1353 cells [10] (400 μM zaltoprofen, 24 hours), the “suppression of proliferation of SW1353 cells” value is “about 38%”. For the same molecule, the “cell proliferation-suppressing action when expression of PPARγ is suppressed by siRNA” value in the assay on SW1353 cells [10] (SW1353, PPARγ-siRNA 100 nM 48 hours, 400 μM zaltoprofen or 100 μM rosiglitazone) is “substantially eliminated”. For the same molecule, the “cell proliferation-suppressing action with PPARγ siRNA” value in the assay with human PVNS cells is on record as “substantially completely eliminated”. Further, the “cell injury seen in microphotographs of invaded cells” value in the assay with SW1353 cells [11] (100 μM troglitazone, 50 μM celecoxib or 400 μM zaltoprofen, cells only sparsely existed and rolled into small balls) is reported as “cell injury was realized”. Further, in the assay on SW1353 cells [11] (400 μM zaltoprofen, 24 hours), the “cell invasion remaining (suppressed to)” value is “lower than 20%”. Besides, the “suppression of cell invasion of SW1353 cells” value with SW1353 cells [11] (all set concentrations, concentration-dependent, 24 hours) is “suppressed the cell invasion”. Moreover, the “suppression of proliferation of cells of giant cell tumor of bone” value in [12] was “suppressed proliferation”. For the same molecule, the “differentiation of the cells into fat cells” value in assay [13] is “induced differentiation of the cells into fat cells”. Moreover, the “giant cell tumor of bone in patient” value in assay [14] is on record as “giant cell tumor of bone disappeared”.
